In patent publication US8173606B2, “Sulfated oligosaccharide derivatives” (Progen Pharmaceuticals Limited, priority 2004, dated 2012) one finds Kd and IC50 data, which are given here for 2 substances.

In assay [1] the target is T1, VEGF (Homo sapiens, UniProt P15692).
T1 sequence (P15692 27-191 isoform P15692-4): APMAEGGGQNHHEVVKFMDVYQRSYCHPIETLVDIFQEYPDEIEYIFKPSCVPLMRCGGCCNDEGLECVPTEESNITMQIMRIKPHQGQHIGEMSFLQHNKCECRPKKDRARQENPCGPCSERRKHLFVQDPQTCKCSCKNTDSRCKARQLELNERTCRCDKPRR
The assay can be described thus: SPR based solution affinity assay, growth factor binding (VEGF). The following applies: heparin-coated sensorchip, HBS-EP buffer, 25° C. The procedure:
Binding affinities of ligands for the growth factors FGF-1, FGF-2 and VEGF were measured using a surface plasmon resonance (SPR) based solution affinity assay. The principle of the assay is that heparin immobilised on a sensorchip surface distinguishes between free and bound growth factor in an equilibrated solution of the growth factor and a ligand. Upon injection of the solution, the free growth factor binds to the immobilised heparin, is detected as an increase in the SPR response and its concentration thus determined. A decrease in the free growth factor concentration as a function of the ligand concentration allows for the calculation of the dissociation constant, Kd. It is important to note that ligand binding to the growth factors can only be detected when the interaction involves the HS binding site, thus eliminating the chance of evaluating non-specific binding to other sites on the protein. A 1:1 stoichiometry has been assumed for all protein:ligand interactions.
For the testing of growth factor binding activity, heparin-coated sensorchips were used. Their preparation, via immobilisation of biotinylated BSA-heparin on a streptavidin-coated sensorchip, has been described.[5] Heparin has also been immobilised via aldehyde coupling using either adipic acid dihydrazide or 1,4-diaminobutane. […] Ligands binding to FGF-1 and VEGF were measured in HBS-EP buffer (10 mM HEPES, pH 7.4, 150 mM NaCl, 3.0 mM EDTA and 0.005% (v/v) polysorbate 20), while binding to FGF-2 was measured in HBS-EP buffer containing 0.3 M NaCl.[5] […] For each assay mixture, 50-200 μL of solution was injected at 5-40 μL/min and the relative binding response measured. […]
Sensorgram data were analysed using the BIAevaluation software (BIAcore). […]
[formula] and the binding equation[5] can be expressed as
The Kd values given are the values fit, using the binding equation, to a plot of [P] versus [L]total. Where Kd values were measured in duplicate, the values represent the average of the duplicate measurements. […]

Assay [2] deals with herpes simplex virus (HSV-1) KOS321 strain. The assay can be described thus: Antiviral assay, HSV-1 cell-to-cell spread (plaque area). It counts as cell-based. To be noted: African green monkey kidney cells; compound in overlay medium after infection, 3 days. The text has this:
In panel A, the results are expressed as a percentage of the number of viral plaque forming units (PFU) formed in cells infected with the compound-treated virions relative to mock-treated controls. In panel B, the results are expressed as a percentage of the average area of 20 viral plaques formed in the continuous presence of compound relative to mock-treated control cells. Monolayer cultures of African green monkey kidney cells[35] and herpes simplex virus (HSV-1) KOS321 strain[36] were used throughout. The antiviral assays on the compounds were performed as described by Nyberg et al.[13] Briefly, the effects of the compounds on the infection of cells by exogenously added virus were tested by mixing serial fivefold dilutions of compound (at 0.032-20 μM) with approximately 200 plaque forming units of the virus. Following incubation of the virus and compound for 10 min at room temperature, the mixture was added to the cells and left on the cell monolayer for 2 h at 37° C. Subsequently, the inoculum was aspirated and replaced with an overlay medium of 1% methylcellulose solution in Eagle's minimum essential medium (EMEM). The viral plaques that developed after incubation of cells for 3 days at 37° C. were stained with 1% crystal violet solution and counted. The effects of the compounds on cell-to-cell spread of HSV-1 were tested by adding serial fivefold dilutions of compound (at 0.032-20 μM) in the serum-free overlay medium to cells after their infection with HSV-1. After incubation of the compound with the cells for 3 days at 37° C., the images of 20 plaques were captured and subjected to area determination using IM500 software (Leica).

As for Benzyl Glycoside Polysulfate [PG500], the Kd in assay [1] is 1.72 ± 0.19 nM. In assay [2], this substance displayed an IC50 of 1000 nM.
Taken in the same sequence, the figures for Octyl Glycoside Polysulfate [PG501] were 1.67 ± 0.11 nM and 400 nM.

As usually defined, the Kd is the concentration at which binding is half-saturated. For orientation: IC50 means the concentration at which inhibition is half-maximal.
